What all share (assay type): cell-based
The target in assay [1] is T1, human Bradykinin B1 receptor (Homo sapiens, UniProt P46663).
T1 construct: host or cells: CHO-K1
T1 sequence (P46663 1-353): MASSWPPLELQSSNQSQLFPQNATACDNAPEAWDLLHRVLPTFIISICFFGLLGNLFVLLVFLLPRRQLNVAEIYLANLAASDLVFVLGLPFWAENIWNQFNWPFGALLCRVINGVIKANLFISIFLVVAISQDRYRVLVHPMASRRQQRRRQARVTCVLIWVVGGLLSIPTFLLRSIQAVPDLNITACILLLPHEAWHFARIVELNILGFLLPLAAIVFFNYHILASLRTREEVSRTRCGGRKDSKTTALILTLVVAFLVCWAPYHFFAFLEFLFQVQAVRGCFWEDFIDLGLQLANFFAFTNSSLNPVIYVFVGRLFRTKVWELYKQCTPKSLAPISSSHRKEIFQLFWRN
Briefly: Calcium flux Assay (FLIPR) with recombinant CHO-K1 cells expressing human Bradykinin B1 receptor, in presence (hB1 IC50) or absence (hB1 free IC50) of 0.1% BSA. Background: Calcium assays in cells follow changes in intracellular calcium, usually with a dye or a luminescent sensor.

For assay [2], the system named is IL-6 secretion. Description: Inhibitory activity on Bradykinin B1 agonist-induced secretion of IL-6 in human IMR-90 cells. As to conditions: 30 min compound, stimulated with 0.1 μM Lys-[Des-Arg9]Bradykinin and 0.1 μM Sar-[D-Phe8]-des-Arg9-Bradykinin for 5 hours. From the text:
(§1) Inhibitory activity on Bradykinin B1 agonist-induced secretion of IL-6 and IL-8 in human IMR-90 cells
(§2) The effect of the compound examples on secretion of the cytokine IL-6 and IL-8 has been investigated in the human foetal lung fibroblast IMR-90 cell line. Here the induction of the cytokine secretion was induced by the Bradykinin B1 agonists Lys-[Des-Arg9]Bradykinin (CAS 71800-36-7, Tocris Bioscience) and Sar-[D-Phe8]-des-Arg9-Bradykinin (CAS 126959-88-4, Tocris Bioscience) leading to the activation of the Bradykinin B1-driven signalling pathway. This effect is indicative for a strong anti-inflammatory mode of action in kinin driven inflammation.
(§3) IMR-90 cells were cultured in Eagle's Minimum Essential Medium (EMEM) containing 2 mM L-glutamine, 1 g/L glucose, 1.5 g/L NaHCO3, 1 mM sodium pyruvate and non-essential amino acids (ATCC, 30-2003™) supplemented with 10% FBS (Biochrom, S0615) and 50 U/mL Penicillin, 50 μg/mL Streptomycin (PAA, P11-010). The assay was performed in EMEM and a cell density of […] IMR-90 cells/96-well. The compound examples have been serial diluted in 100% DMSO and evaluated at 8 different concentrations within the range of 3 nM and 10 μM and a final DMSO concentration of 0.4%. The IMR-90 cells have been incubated with the respective concentration of the compound for 30 min. The enhanced secretion of IL-6 and IL-8 was induced by the stimulation of these cells with 0.1 μM Lys-[Des-Arg9]Bradykinin (Tocris, catalogue no. 3225) and 0.1 μM Sar-[D-Phe8]-des-Arg9-Bradykinin (Tocris, catalogue no. 3230) for 5 hours at 37° C. and 5% C02. Further, cells have been treated with Lys-[Des-Arg9]Bradykinin and Sar-[D-Phe8]-des-Arg9-Bradykinin as neutral control and with 0.1% DMSO as inhibitor control. The amount of IL-6 and IL-8 in the supernatant was determined using the Human Prolnflammatory Panel II (4-Plex) (MSD, K15025B) according to manufacturer's instruction. Briefly, supernatants were added onto assay plates and incubated at room temperature for 1-2 h with vigorous shaking at 600 rpm. Detection antibodies were then added onto the supernatants and incubated at room temperature for an additional 1-2 h with vigorous shaking at 600 rpm. Plates were washed three times with phosphate-buffered saline (PBS; 137 mM NaCl, 2.7 mM KCl, 6.5 mM Na2HPO4, 1.7 mM KH2P04) containing 0.05% Tween-20 (Bio-Rad, 161-0781) and electrochemiluminescence detected using the MSD Sector Imager 6000 plate reader. The cell viability was measured using the CellTiter-Glo Luminescent Assay (Promega, G7571) following the manufacturers protocol. Briefly, the CellTiter-Glo Reagent was diluted with PBS (1:1) and added directly to cells. After incubation and shaking for 10 minutes luminescent signal was measured which is proportional to the amount of ATP present.
(§4) The effect of the compound on the amount of secreted cytokine has been calculated as 100/(measured cytokine concentration of neutral control-measured cytokine concentration of inhibitor control)*(measured cytokine concentration of compound dose-measured cytokine concentration of inhibitor control). IC50 values are determined using 4-parameter-fit.
(§5) The compound examples were tested in triplicates per plate and the inhibitory activity was determined as the relation between neutral and inhibitor control in percent. IC50 values were calculated using the 4-parameter logistic model.

The test system of assay [3] is IL-8 secretion. Description: Inhibitory activity on Bradykinin B1 agonist-induced secretion of IL-8 in human IMR-90 cells. The conditions noted are these: 30 min compound, stimulated with 0.1 μM Lys-[Des-Arg9]Bradykinin and 0.1 μM Sar-[D-Phe8]-des-Arg9-Bradykinin for 5 hours.
Description: as §1, §2, §3, §4, §5

The target of assay [4] is T2, native human Bradykinin B1 receptor (Homo sapiens, UniProt P46663).
T2 construct: which express native human Bradykinin B1 receptor after induction with human IL-10; Coriell Institute; host or cells: IMR-90 human foetal lung fibroblasts, cytokine-induced
T2 sequence (P46663 1-353): T1 sequence (P46663 1-353)
Briefly: Calcium flux Assay (FLIPR) with human fibroblasts expressing Bradykinin B1 receptor (hB1 IMR-90). As to conditions: IMR-90 human fibroblasts expressing native Bradykinin B1 receptor. In short, it runs like this: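 IMR-90 human foetal lung fibroblasts induced with 0.35 ng/mL […] for 3 h, Fluo-4/AM-loaded, preincubated with compound (8 concentrations, triplicate) for 30 min at 28 °C, then challenged with Lys-(Des-Arg)-bradykinin at EC90. Ca2+ fluorescence was read at 538 nm; full inhibition set by 20 µM Lys-(Des-Arg-Leu)-bradykinin; IC50 derived.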

The mark [5] stands for this setting: in absence of 0.1% BSA, read-out: hB1 free IC50.
Setting [6] is: in presence of 0.1% BSA, read-out: hB1 IC50.

Read-outs that look alike come from different tables or passages of the source.

Usually IC50 stands for the point on the concentration scale where inhibition reaches its midpoint. For `CC(C)(C)c1cn(-c2ccc(NC(=O)C3(c4ccc(OC(F)(F)F)cc4F)CC3)cc2-c2nnn[nH]2)cn1` [Example 404, N-[4-(4-tert-butyl-1H-imidazol-1-yl)-3-(1H-tetrazol-5-yl)phenyl]-1-[2-fluoro-4-(trifluoromethoxy)phenyl]cyclo-propanecarboxa-mide], the IC50 in assay [1] (setting [5]) was 6.36 nM; in assay [2], 69 nM; in assay [3], 59 nM.

Regarding `CCOc1ncc(-c2ccc(NC(=O)C3(c4cccc(Cl)c4F)CC3)cc2-c2nnn[nH]2)cn1` [Example 183, 1-(3-chloro-2-fluorophenyl)-N-[4-(2-ethoxypyrimidin-5-yl)-3-(1H-tetrazol-5-yl)phenyl] cyclopropane-carboxamide], the IC50 in assay [1] (setting [5]) amounted to 54.4 nM; in assay [1] (setting [6]), 33 nM; in assay [4], 11.1 nM.

As for `CCOc1ncc(-c2ccc(NC(=O)C3(c4cccc(Cl)c4)CC3)cc2-c2nnn[nH]2)cc1Cl` [Example 328, N-[4-(5-chloro-6-ethoxypyridin-3-yl)-3-(1H-tetrazol-5-yl)phenyl]-1-(3-chlorophenyl)cy-clopropanecarbox-amide], the IC50 in assay [1] (setting [5]) was 13.5 nM; in assay [1] (setting [6]), 77.9 nM; in assay [4] it was 127 nM.

With `CCOc1ccc(-c2c(Cl)cc(NC(=O)C3(c4cccc(Cl)c4)CC3)cc2-c2nnn[nH]2)cn1` [Example 247, N-[3-chloro-4-(6-ethoxypyridin-3-yl)-5-(1H-tetrazol-5-yl)phenyl]-1-(3-chlorophenyl) cyclopropane-carboxamide], the half-maximal inhibitory concentration (IC50) in assay [1] (setting [5]) worked out at 20 nM; in assay [1] (setting [6]) it was 61.8 nM; in assay [4] it was 37.3 nM.

For the compound `COc1cc(C(F)(F)F)ccc1C1(C(=O)Nc2ccc(-c3ccc(C(F)(F)F)nc3)c(-c3nnn[nH]3)c2)CC1` [Example 293, 1-[2-methoxy-4-(trifluoromethyl)phenyl]-N-{3-(1H-tetrazol-5-yl)-4-[6-(trifluoromethyl)pyridin-3-yl]phenyl}cyclopro-panecarboxa-mide], the IC50 came out at 297 nM in assay [1] (setting [5]) and 266 nM in assay [4].

In the case of `O=C(Nc1cc(-c2nnn[nH]2)c(-c2ccc(C(F)(F)F)nc2)cc1O)C1(c2cc(Cl)ccc2F)CC1` [Example 222], the IC50 was 75.7 nM in assay [1] (setting [6]) and 55.6 nM in assay [4].

As to `Cc1ccc(-c2ccc(NC(=O)C3(c4ccc(C(F)(F)F)cc4F)CC3)cc2-c2nnn[nH]2)cn1` [Example 209, 1-[2-fluoro-4-(trifluoromethyl)phenyl]-N-[4-(6-methylpyridin-3-yl)-3-(1H-tetrazol-5-yl)phenyl] cyclopropane-carboxamide], the IC50 in assay [1] (setting [5]) turned out to be 2.96 nM; in assay [4] it was 3.05 nM.

As to `CC(C)(O)Cc1ccc(-c2ccc(NC(=O)C3(c4cccc(Cl)c4)CC3)cc2-c2nnn[nH]2)cn1` [Example 343, 1-(3-Chlorophenyl)-N-{4-[6-(2-hydroxy-2-methylpropyl)pyridin-3-yl]-3-(1H-tetrazol-5-yl)phenyl}cyctopropanecarboxamide], the values for the IC50 in assay [1] (setting [5]), in assay [1] (setting [6]) and in assay [4] were 259 nM, 113 nM and 110 nM, respectively.

On to `O=C(Nc1ccc(-c2ccc(C(F)(F)F)nc2)c(-c2nnn[nH]2)c1)C1(c2cc(F)ccc2F)CC1` [Example 141, 1-(2,5-difluorophenyl)-N-{3-(1H-tetrazol-5-yl)-4-[6-(trifluoromethyl)pyridin-3-yl]phenyl} cyclopropane-carboxamide], for which the IC50 in assay [1] (setting [5]) worked out at 224 nM; in assay [4], 141 nM.

`COCc1ccc(-c2ccc(NC(=O)C3(c4ccc(C(F)(F)F)cc4)CC3)cc2-c2nnn[nH]2)cn1` [Example 126, N-{4-[6-(methoxymethyl)pyridin-3-yl]-3-(1H-tetrazol-5-yl)phenyl}-1-[4-(trifluoromethyl)phenyl] cyclopropane-carboxamide]: the half-maximal inhibitory concentration (IC50) amounted to 21.9 nM in assay [1] (setting [6]) and 13.1 nM in assay [4].

For the compound `COc1ccc(-c2ccc(NC(=O)C3(c4ccccc4Cl)CC3)cc2-c2nnn[nH]2)cc1OC` [Example 36, 1-(2-chlorophenyl)-N-[3′,4′-dimethoxy-2-(1H-tetrazol-5-yl)biphenyl-4-yl]cyclopropane carboxamide], the figures for the half-maximal inhibitory concentration (IC50) in assay [1] (setting [6]) and in assay [4] were 128 nM and 104 nM, respectively.

Turning to `CCOc1ccc(-c2ccc(NC(=O)C3(c4ccc(Cl)cc4)CC3)cc2-c2nnn[nH]2)cn1` [Example 100, 1-(4-chlorophenyl)-N-[4-(6-ethoxypyridin-3-yl)-3-(1H-tetrazol-5-yl)phenyl] cyclopropane-carboxamide], the half-inhibitory concentration (IC50) in assay [1] (setting [5]) amounted to 5.56 nM; in assay [1] (setting [6]), 20.2 nM; in assay [4], 8.84 nM.

Regarding `CCOc1ccc(-c2cc(O)c(NC(=O)C3(c4cccc(Cl)c4)CC3)cc2-c2nnn[nH]2)cn1` [Example 263, 1-(3-chlorophenyl)-N-[4-(6-ethoxypyridin-3-yl)-2-hydroxy-5-(1H-tetrazol-5-yl)phenyl]cyclopro-panecarboxa-mide], the IC50 in assay [1] (setting [5]) came to 7.72 nM; in assay [1] (setting [6]), 34.5 nM; in assay [4] it was 33.8 nM.

In the case of `CCn1cc(-c2ccc(NC(=O)C3(c4cccc(Cl)c4)CC3)cc2-c2nnn[nH]2)cn1` [Example 216, 1-(3-chlorophenyl)-N-[4-(1-ethyl-1H-pyrazol-4-yl)-3-(1H-tetrazol-5-yl)phenyl] cyclopropane-carboxamide], the values for the IC50 in assay [1] (setting [5]) and in assay [4] were 40.6 nM and 38.8 nM, respectively.

Consider `CCOc1ncc(-c2ccc(NC(=O)C3(c4cccc(Cl)c4)CC3)cc2-c2nnn[nH]2)cn1` [Example 184, 1-(3-chlorophenyl)-N-[4-(2-ethoxypyrimidin-5-yl)-3-(1H-tetrazol-5-yl)phenyl] cyclopropane-carboxamide], for which the figures for the IC50 in assay [1] (setting [5]), in assay [1] (setting [6]) and in assay [4] were 24.6 nM, 50.5 nM and 22.3 nM, respectively.

On to `CC(F)(F)c1ccc(-c2ccc(NC(=O)C3(c4cccc(Cl)c4)CC3)cc2-c2nnn[nH]2)cn1` [Example 202, 1-(3-chlorophenyl)-N-{4-[6-(1,1-difluoroethyl)pyridin-3-yl]-3-(1H-tetrazol-5-yl)phenyl} cyclopropane-carboxamide], for which the values for the concentration for half-maximal inhibition (IC50) in assay [1] (setting [5]) and in assay [4] were 83.2 nM and 50.9 nM, respectively.

In the case of `O=C(Nc1ccc(-c2ccc(C(F)(F)F)nc2)c(-c2nnn[nH]2)c1)C1(c2ccc(OC(F)(F)F)cc2F)CC1` [Example 294, 1-[2-fluoro-4-(trifluoromethoxy)phenyl]-N-{3-(1H-tetrazol-5-yl)-4-[6-(trifluoromethyl)pyridin-3-yl]phenyl}cyclopro-panecarboxa-mide], the 50% inhibitory concentration (IC50) amounted to 5.96 nM in assay [1] (setting [5]) and 6.13 nM in assay [4].

For the origin of these results see patent publication US20210317092A1 (BAYER PHARMA AKTIENGESELLSCHAFT, priority 2016, published 2021).
